Results reported in publication PMC10094158, “Discovery of a photoactivatable dimerized STING agonist based on the benzo[b]selenophene scaffold” (Chemical Science, 2023).

Legend:
[1] = target: T1, hSTING^H232 (Stimulator of interferon genes) (Homo sapiens, UniProt Q86WV6, H232); assay: SPR (KD […]); also ITC (KD […]), DSF and […] Å co-crystal structure; type: binding
T1 construct: gene STING1

[2] = target: T2, hSTING^HAQ (Stimulator of interferon genes) (Homo sapiens, UniProt Q86WV6, R71H/G230A/H232R/R293Q); assay: thermal shift (DSF), ΔTm; type: binding
T2 construct: gene STING1
T2 sequence (Q86WV6 whole entry R71H/G230A/H232R/R293Q): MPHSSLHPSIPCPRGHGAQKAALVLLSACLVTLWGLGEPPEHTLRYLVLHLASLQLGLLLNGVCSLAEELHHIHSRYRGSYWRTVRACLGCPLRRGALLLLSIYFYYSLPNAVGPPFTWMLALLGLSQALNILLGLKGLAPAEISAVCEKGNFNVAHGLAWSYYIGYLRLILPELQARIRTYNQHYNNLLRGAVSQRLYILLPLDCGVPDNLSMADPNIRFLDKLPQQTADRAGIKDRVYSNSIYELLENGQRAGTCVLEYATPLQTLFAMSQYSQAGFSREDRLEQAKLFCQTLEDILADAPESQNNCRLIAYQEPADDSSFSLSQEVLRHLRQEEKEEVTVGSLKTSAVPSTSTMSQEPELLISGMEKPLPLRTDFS

T1 sequence (Q86WV6 whole entry, change not shown): as the sequence (Q86WV6 whole entry R71H/G230A/H232R/R293Q) above, with H71R, A230G, R232H, Q293R counted along it

`COc1cc2[se]c(C(=O)CCC(=O)O)cc2cc1OCCCOc1cc2cc(C(=O)CCC(=O)O)[se]c2cc1OC` [diBSP01] was tested, and the Kd [1] was 49 nM and the “thermal shift (DSF), ΔTm” value [2] was 27.0 °C.
